From patent publication US20100323972A1, “NON-IMMUNOSUPPRESSIVE CYCLOSPORIN FOR THE TREATMENT OF MUSCULAR DYSTROPHY” (priority 2008, published 2010)
Entries after “also recorded” stand apart in the source; their conditions may differ.

Legend:
[1] = system: scgd−/− mice; assay: Percentage fibrosis in muscles (hydroxyproline content / trichrome-stained sections); format: in vivo; conditions: trichrome-stained sections of diaphragm, tibialis anterior, gastrocnemius, quadriceps
Text: FIG. 2(c) represents reduction of muscle pathology after administration of D-[MeAla]^3-[EtVal]^4-CsA in scgd−/− mice as assessed by quantitation of fibrotic areas in trichrome-stained sections from diaphragm (Diaph.), tibialis anterior (TA), gastrocnemius (Gastroc.), quadriceps (Quad). Assessed were sections from wild type (Wt) mice treated with either vehicle (white bar) or D-[MeAla]^3-[EtVal]^4-CsA (black bar) and from scgd−/− mice treated with either vehicle (gray bar or second to last bar in group) or D-[MeAla]^3-[EtVal]^4-CsA (dotted bar or last bar of group).
Different dissected muscles, gastrocnemius, quadriceps, tibialis anterior and heart muscles, were weighed and muscle weight (MW)-to-tibia length (TL) ratios (MW/TL) were determined. Results in FIG. 2(a) and FIG. 2(c) are presented as means±SEM (standard error of the means). A one-way ANOVA was used to compare means among 3 or more independent groups. […]
Percentage fibrosis was assessed by means of a biochemical assay that quantified hydroxyproline content (Parsons et al., Am. J. Pathol., 2006, 168:1975-1985) in diaphragm (Diaph.), tibialis anterior (TA), gastrocnemius (Gastroc.) and quadriceps (Quad) muscles from wild type and scgd−/− mice treated or not treated with D-[MeAla]^3-[EtVal]^4-CsA.

[2] = system: scgd−/− mice; assay: Quantitation of the distribution of fiber areas in skeletal muscles; format: in vivo; conditions: 50 mg/kg/day subcutaneous for 6 weeks; for Fiber area distribution / heterogeneity: 50 mg/kg/day
Text: (§1) FIG. 3(a) represents reduction of fiber area heterogeneity in muscle from scgd−/− mice after the administration of D-[MeAla]^3-[EtVal]^4-CsA as assessed by quantitation of the distribution of fiber areas in tibialis anterior (muscle). The study included wild type (Wt) mice treated with either vehicle (white bar) or D-[MeAla]^3-[EtVal]^4-CsA (black bar) and scgd−/− mice treated with either vehicle (gray bar or second to last bar in group) or D-[MeAla]^3-[EtVal]^4-CsA (dotted bar or last bar of group).
as §1, with “3(b)” for “3(a)”, “gastrocnemius. Included in the” for “tibialis anterior (muscle). The”, “were” for “included”
as §1, with “3(c)” for “3(a)”, “quadriceps muscle. Measurements were carried out on” for “tibialis anterior (muscle). The study included”
Scgd−/− mice were administered subcutaneously with either D-[MeAla]^3-[EtVal]^4-CsA at a dose of 50 mg/kg/day or vehicle for 6 weeks. […] The administration of the non-immunosuppressive D-[MeAla]^3-[EtVal]^4-CsA to scgd−/− mice reduced the regeneration rate of the fibers and normalized partially the distribution of small and large fibers.

[3] = system: scgd−/− mice; assay: Hematoxylin- and eosin-stained histological sections of quadriceps; format: in vivo; conditions: 50 mg/kg/day subcutaneous
Text: FIG. 2(b) represents reduction of muscle pathology after administration of D-[MeAla]^3-[EtVal]^4-CsA in Scgd−/− mice observed in representative hematoxylin- and eosin-stained sections of quadriceps from wild type (Wt) mice and scgd−/− mice treated with D-[MeAla]^3-[EtVal]^4-CsA. Corresponding vehicle controls are also shown.
(§2) Different dissected muscles, gastrocnemius, quadriceps, tibialis anterior and heart muscles, were weighed and muscle weight (MW)-to-tibia length (TL) ratios (MW/TL) were determined. Results in FIG. 2(a) and FIG. 2(c) are presented as means±SEM (standard error of the means). A one-way ANOVA was used to compare means among 3 or more independent groups. A Newman-Keuls post hoc test was applied whenever multiple comparisons were conducted using InStat 3.0 (GraphPad software from Science Inc.). Values were considered significant when p<0.05.
Reduced pathology in the scgd−/− mice treated with D-[MeAla]^3-[EtVal]^4-CsA was also observed in histological slides of quadriceps (FIG. 2(b)).

[4] = system: scgd−/− mice; assay: Muscle weight-to-tibia length ratios (pseudo-hypertrophy) in treated scgd−/− mice; format: in vivo
Experimental: as §2
In response to the numerous degeneration/regeneration cycles, scgd—/− mice initially presented with hypertrophic skeletal muscles as are seen in subjects suffering from LGMD. […] Reduction of skeletal muscular hypertrophy was about 1.3 fold in gastrocnemius (Gastroc.), quadriceps (Quad.) and tibialis anterior (TA) and about 1.2 fold in heart muscle (Heart) of D-[MeAla]^3-[EtVal]^4-CsA-treated scgd−/− mice compared to vehicle-treated animals.

[5] = system: mouse model of Duchenne; conditions: inhibition of calcineurin; cited from earlier work

[D-MeAla]^3-[EtVal]^4-CsA [D-[MeAla]^3-[EtVal]^4-CsA]
Effect on fibrotic areas (FIG. 2(c)) [1]: reduced fibrosis | Fiber area distribution / heterogeneity ([2]; gastrocnemius): normalized fiber area heterogeneity; also recorded: partially normalized | Fiber area distribution / heterogeneity ([2]; quadriceps): normalized fiber area heterogeneity; also recorded: partially normalized | Population of small fibers compared to vehicle-treated scgd−/− mice ([2]; three skeletal muscles): Less small fibers | Fiber area distribution / heterogeneity ([2]; tibialis anterior): normalized fiber area heterogeneity; also recorded: partially normalized | Myofiber organization and fiber area distributions in histological slides [3]: Improvement in myofiber organization and normalization of fiber area distributions | Reduction of skeletal muscular hypertrophy (MW/TL) compared to vehicle-treated animals ([4]; gastrocnemius, 50 mg/kg/day subcutaneous, 4 to 10 weeks of age): about 1.3 fold | Effect on disease-associated increase in muscle weight (FIG. 2(a)) ([4]; gastrocnemius, quadriceps, tibialis anterior, heart): prevents an increase in muscle weight | Reduction of hypertrophy (MW/TL) compared to vehicle-treated animals ([4]; heart muscle, 50 mg/kg/day subcutaneous, 4 to 10 weeks of age): about 1.2 fold | Reduction of skeletal muscular hypertrophy (MW/TL) compared to vehicle-treated animals ([4]; quadriceps, 50 mg/kg/day subcutaneous, 4 to 10 weeks of age): about 1.3 fold | Reduction of skeletal muscular hypertrophy (MW/TL) compared to vehicle-treated animals ([4]; tibialis anterior, 50 mg/kg/day subcutaneous, 4 to 10 weeks of age): about 1.3 fold

cyclosporin A [CsA]
Effect on muscle pathology [5]: deleterious
